Measured values: patent US6417399B1, “Amelioration of neurological disorders by the administration of (2R),(3S), and/or (2S),3(S) stereoisomers of valnoctamide” (Yissum Research Development Company of the Hebrew …, priority 1997, dated 2002)
Several values for one entry are separate records, joined by “and”; a condition that tells them apart may be missing. Identical values can stand only once. Blank lines part the entries; values can stand above or below the compound they belong to.

Experiments:
[1] = target: T1, epoxide hydrolase (Homo sapiens, UniProt P07099); details: racemic VCD; cited from earlier work
T1 construct: decreased clearance of CBZ-E in patients; host or cells: patients in vivo (endogenous enzyme)
T1 sequence (P07099 1-455): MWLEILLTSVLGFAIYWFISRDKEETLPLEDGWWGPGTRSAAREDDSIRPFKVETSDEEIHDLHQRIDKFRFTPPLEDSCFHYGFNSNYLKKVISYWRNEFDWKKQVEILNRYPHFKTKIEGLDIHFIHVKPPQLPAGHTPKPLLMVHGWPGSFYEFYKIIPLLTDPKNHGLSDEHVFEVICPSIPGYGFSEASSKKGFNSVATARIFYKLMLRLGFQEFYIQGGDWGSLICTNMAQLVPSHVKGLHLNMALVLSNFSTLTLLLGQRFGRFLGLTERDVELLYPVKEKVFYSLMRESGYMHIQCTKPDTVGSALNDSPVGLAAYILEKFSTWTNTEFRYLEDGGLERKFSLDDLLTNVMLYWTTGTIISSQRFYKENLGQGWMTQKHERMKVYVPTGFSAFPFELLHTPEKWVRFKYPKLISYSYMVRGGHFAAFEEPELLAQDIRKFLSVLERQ

[2] = animal models; cited from earlier work
[3] = in vivo; cited from earlier work
[4] = Pharmacokinetics of VCD stereoisomers in plasma after single oral dose of racemic valnoctamide to healthy subjects; format: in vivo, human
Description: Healthy Subjects Seven healthy male volunteers, aged 20-31 years, weighing 61 to 85 kg, received 2×200 mg valnoctamide tablets (Nirvanil@) at 08:00 hours after an overnight fast. Venous blood samples were taken through an indwelling catheter 0, 0.5, 1, 2, 3, 4, 5, 6, 8, 10, 12 and 24 hours after dosing. Food was witheld for 4 hours after dosing.
(§1) Plasma Handling and Analytical Assays Plasma samples were separated immediately by centrifugation at 2,000 g for 10 minutes and stored at −20° C. until assaying (VCD is stable at −20° C.). The VCD plasma samples were analyzed by a gas chromatograph (HP 5890 series II)-mass spectrometer (HP 5989A)-GC-MS data system equipped with chiral capillary column. The mass spectrometer was operated in E1 mode at 70eV, the source temperature of the MS was maintained at 200° C. and the quadruple at 100° C. Mass units and their relative abundance were calibrated with perfluorotributylamine (PFTBA). Spectra were collected in the range of […], and the chiral analysis started 18 minutes after injection. Gas chromatograph (GC) oven temperature programming conditions were as follows: 50° C. for 1 minute, then increasing at a rate of 8° C./minute until 100° C., holding for a minute then 4° C./minute until reaching a final temperature of 250° C. The injector temperature is 240° C. and the GC-MS transfer line temperature is 250° C. Inlet pressure is 5 psi with a linear flow rate 20 cm/second. Helium was used as the carrier gas. Chromatographic resolution of the VCD stereoisomers was accomplished by a direct separation on a chiral stationary phase (CSP) column. The CSP consisted of a Chirasil-γ-Dex (octakis (3-O-butanoyl-2,6-di-o-pentyl)-γ-cyclodextrin chemically linked via a 6-mono-octamethylene spacer to a dimethylpolysiloxane. The 0.25 μm Chirasil-γ-Dex was coated on a 25 m×250 μm (id) fused silica capillary column. This CSP of a cyclodextin derivative allows complete baseline resolution of the four stereoisomers (α=1.04, Rs=2.0-2.4) in 24 minutes as depicted in FIG. 2. Intra and inter-day variability in the retention times of the four VCD stereoisomers was less than 10%. A calibration curve was established by spiking drug-free plasma samples with known amounts of racemic VCD at a concentration range of 0.2 mg/L to 8 mg/L (or 0.05 mg/L to 2 mg/L of each of the four VCD stereoisomers).
(§2) Pharmacokinetic and Statistical Analysis Pharmacokinetic parameters were calculated by noncompartmental analysis according to statistical moment theory. Peak plasma concentrations (Cmax) and peak times (tmax) were derived directly from the measured values. The linear terminal slopes (λ) of the log-concentration of each VCD stereoisomer versus time curves were calculated by the peeling procedure. Half life (t½) values were calculated as 0.693/λ. Areas under the plasma concentration versus time curve (AUC), after single dosing, were calculated by the trapezoidal rule with extrapolation to infinity by dividing the last measured concentration by the terminal slope. During repeated administration AUC was calculated over the last two dosing intervals by using the trapezoidal rule. Mean residence time (MRT) was calculated after single dosing as AUMC/AUC, in which AUMC is the area under the concentration×time product versus time curve from zero to infinity. Following single dosing, oral clearance (CL/F, in which F is the oral availability) and apparent volume of distribution at steady state (Vss/F) were calculated as Dose/AUC and as MRT×CL/F, respectively. Following repeated dosing, CL/F was calculated from the quotient of the dose (200 mg) and the AUC obtained during one dosing interval (defined as one-half of the AUC calculated over two consecutive dosing intervals). Comparison of the pharmacokinetic parameters of all four VCD stereoisomers was made by ANOVA.

[5] = Pharmacokinetics of VCD stereoisomers in plasma after single oral dose of racemic valnoctamide to epileptic patients; format: in vivo, human; details: for CL/F / Cmax / MRT / tmax / t½: single oral 400 mg racemic VCD
Description: (§3) Patients Six epileptic patients (four men and two women aged 23-35 years, with a body weight of 56-85 kg) were studied. All had been receiving a constant carbamazepine dose (800-1200 mg/day) for at least three months. One patient was also receiving phenytoin (250 mg/day) and a second patient phenobarbital (150 mg/day). Each patient received add-on VCD for eight consecutive days at a dosage of 400 mg on day 1 (single dose day), followed by 200 mg three times daily (tid) for seven days. On the last day, only the morning and the midday doses were administered. Blood samples for plasma VCD levels were collected at 0, 0.25, 0.5, 1, 1.5, 2, 3, 4, 5, 6, 8, 10, 12 and 24 hours after the first and the last morning dose. Additional samples were taken at times 0, 0.5, 1, and 2 hours after the morning dose on the last treatment day.
as §1
as §2, with “Following repeated dosing, CL/F was calculated from the quotient of the dose (200 mg) and the AUC obtained during one dosing interval (defined as one-half of the AUC calculated over two consecutive dosing intervals). Comparison of the pharmacokinetic parameters of all four VCD stereoisomers was made by ANOVA.” left out

[6] = Pharmacokinetics of VCD stereoisomers in plasma after repeated oral dosing of racemic valnoctamide to epileptic patients; format: in vivo, human; details: repeated oral racemic VCD 200 mg tid, last day
Description: as §3, §1
as §2, with “Following repeated dosing, CL/F was calculated from the quotient of the dose (200 mg) and the AUC obtained during one dosing interval (defined as one-half of the AUC calculated over two consecutive dosing intervals). Comparison of the pharmacokinetic parameters of all four VCD stereoisomers was made by ANOVA.” left out

[7] = in animals; cited from earlier work
[8] = Mean ± SD of seven healthy subjects, single oral 400 mg racemic VCD
[9] = individual healthy subjects, single oral 400 mg racemic VCD
[10] = Mean ± SD of six epileptic patients
[11] = individual epileptic patients on carbamazepine

SMILES: CCC(C)C(CC)C(N)=O (racemic) [VCD, 2-ethyl-3-methyl pentanamide]
inhibition of the enzyme epoxide hydrolase [1]: inhibitor of the enzyme epoxide hydrolase
anticonvulsant potency relative to VPA [2]: three times more potent
half-life relative to that of VPD [3]: ten times higher

CL/F [4, 8]: 4.6 ± 0.7 L/h
Cmax [4, 8]: 1.5 ± 0.2 mg/L
MRT [4, 8]: 15 ± 3 h
tmax [4, 8]: 0.7 ± 0.3 h
t½ [4, 8]: 10 ± 2 h
t½ ([4]; Mean ± SD of seven healthy subjects, single oral 400 mg racemic VCD, listed as D): approximately 10 h
tmax [4, 9]: 1 h (3×) and 0.5 h (4×)
CL/F [5, 10]: 46 ± 11 L/h
Cmax [5, 10]: 0.61 ± 0.11 mg/L
MRT [5, 10]: 4.7 ± 1.0 h
tmax [5, 10]: 0.83 ± 0.51 h
t½ [5, 10]: 3.3 ± 1.1 h
half lives ([5]; epileptic patients): about 3 h
tmax [5, 11]: 1.5 h (2×) and 0.5 h (4×)
t½ [5, 11]: 1.2 h and 3.8 h (3×) and 2.7 h and 3.9 h
CL/F [6, 10]: 29 ± 6 L/h
Cmax [6, 10]: 0.6 ± 0.1 mg/L
tmax [6, 10]: 1.4 ± 0.3 h
t½ [6, 10]: 3.2 ± 1.4 h
SMILES: CCC(C)C(CC)C(N)=O (single isomer, unassigned; stereoisomer d) [Stereoisomer D]
CL/F [4, 9]: 4.3 L/h and 5.6 L/h and 4.8 L/h and 3.8 L/h and 5.4 L/h and 4.7 L/h and 4.1 L/h
Cmax [4, 9]: 1.5 mg/L (3×) and 1.3 mg/L and 1.6 mg/L and 1.4 mg/L and 1.8 mg/L
MRT [4, 9]: 13 h (2×) and 18 h (2×) and 12 h (2×) and 19 h
t½ ([4]; individual healthy subjects, single oral 400 mg racemic VCD (Nirvanil), stereoisomer in plasma): 8.7 h and 12.9 h and 8.0 h and 13.0 h and 9.5 h and 7.9 h and 13 h
CL/F [5, 11]: 60 L/h and 35 L/h and 45 L/h and 42 L/h (2×) and 30 L/h
Cmax [5, 11]: 0.51 mg/L (3×) and 0.72 mg/L (2×) and 0.69 mg/L
MRT [5, 11]: 3.3 h and 5.2 h and 4.5 h and 5.6 h and 5.4 h and 5.3 h
CL/F ([6]; individual epileptic patients): 36 L/h and 25 L/h (3×) and 38 L/h and 24 L/h
Cmax ([6]; individual epileptic patients): 0.7 mg/L and 0.8 mg/L and 0.6 mg/L (3×) and 0.5 mg/L
tmax ([6]; individual epileptic patients): 2.0 h and 1.5 h (3×) and 1.0 h and 1.25 h
t½ ([6]; individual epileptic patients, last dosing interval): 2.1 h and 2.8 h and 5.2 h and 2.5 h and 5.3 h and 4.6 h

SMILES: CCCC(CCC)C(N)=O [VPD, Valpromide]
anticonvulsant potency relative to VPA [2]: three times more potent
teratogenicity [7]: has not been found to be teratogenic
